Source: patent US20260159497A1, “SOLID FORMS OF A COMPLEMENT FACTOR B INHIBITOR” (Novartis Pharma AG, priority 2022, published 2026)
Like-named read-outs stand apart in the source and are kept apart here.

Experiments:
[1] = Dynamic vapor sorption (DVS) mass change; assay type: physicochemical; conditions: Table 6, DVS at 40 degree C.
Source text: [table] The mass change by DVS isotherm (2 cycles 40-0-95-0-40% RH) are in the tables below. The mass change is based on the dry weight of each.

[2] = Compression stability (XRPD after compression); assay type: physicochemical; conditions: 4 tons of compression for 5 min
Source text: Method: […] Afterwards, characterize the sample by XRPD to detect any change in the solid state.

[3] = Intrinsic dissolution rate; assay type: physicochemical
[4] = Water content by Karl Fischer titration; assay type: physicochemical; conditions: ambient conditions; relative to total weight of the salt / free form
[5] = Solubility in Simulated Fluids at 37° C.; assay type: physicochemical; conditions: for solubility at 30 min / solubility at 24 h: 37 °C, thermodynamic from solid; for solubility at 30 min: read-out: Solubility (mg/mL) 30 min; for solubility at 24 h: read-out: Solubility (mg/mL) 24 h
Source text: Solubility data of Form A (S)-4-(2,2-difluoro-7-((5-methoxy-7-methyl-1H-indol-4-yl)methyl)-7-azaspiro[3.5]nonan-6-yl)benzoic acid, Form B (S)-4-(2,2-difluoro-7-((5-methoxy-7-methyl-1H-indol-4-yl)methyl)-7-azaspiro[3.5]nonan-6-yl)benzoic acid p-toluene sulfonic acid salt, Form C (S)-4-(2,2-difluoro-7-((5-methoxy-7-methyl-1H-indol-4-yl)methyl)-7-azaspiro[3.5]nonan-6-yl)benzoic acid p-toluene sulfonic acid salt, and Form D (S)-4-(2,2-difluoro-7-((5-methoxy-7-methyl-1H-indol-4-yl)methyl)-7-azaspiro[3.5]nonan-6-yl)benzoic acid hydrochloride salt in Simulated Fluids at 37° C.

[6] = Stability of Forms A and B under stress conditions (temperature/humidity, capsules, light)
[7] = Solubility in water and biorelevant buffers at 25° C.; assay type: physicochemical; conditions: for XRPD of residual solid after solubility test / pH of solubility sample (pH) / solubility at 24 h: 25° C., 24 h; for solubility at 24 h: thermodynamic from solid, read-out: Solubility (mg/mL) S
Procedure: Purchase sodium taurocholate (NaTC) from supplier. Account for assay. Add amount corresponding to 3 mM to PBS V1. Stir until dissolved. Equilibrate 1 h at 25° C. or 37° C. before use. Dispose after 48 h.
Purchase FaSSIF-V2 from supplier (biorelevant.com). Amount added to PBS-V1 according to Table 1. Stir until dissolved. Equilibrate 1 h at 25° C. or 37° C. before use. Dispose after 48 h.
Purchase FeSSIF-V2 from supplier (biorelevant.com). Amount added to PBS-V1 according to Table 1. Stir until dissolved. Equilibrate 1 h at 25° C. or 37° C. before use. Dispose after 48 h.

[8] = pH 2.0, 0.01 M HCl, 37° C., 100 rpm, 120 min
[9] = pH 6.5, phosphate buffer 50 mM (PBS-V1), 37° C., 100 rpm, 120 min

Compound: COc1cc(C)c2[nH]ccc2c1CN1CCC2(C[C@H]1c1ccc(C(=O)O)cc1)CC(F)(F)C2.Cc1ccc(S(=O)(=O)O)cc1 [Form B, (S)-4-(2,2-difluoro-7-((5-methoxy-7-methyl-1H-indol-4-yl)methyl)-7-azaspiro[3.5]nonan-6-yl)benzoic acid p-toluene sulfonate]
- Mass change by DVS, 1st Sorption (%) ([1]; 20% RH): 1.59%
- Mass change by DVS, 2nd Desorption (%) ([1]; 20% RH): 1.60%
- Mass change by DVS, 2nd Sorption (%) ([1]; 20% RH): 1.59%
- Mass change by DVS, 1st Desorption (%) ([1]; 30% RH): 1.92%
- Mass change by DVS, 1st Sorption (%) ([1]; 30% RH): 1.90%
- Mass change by DVS, 2nd Desorption (%) ([1]; 30% RH): 1.91%
- Mass change by DVS, 2nd Sorption (%) ([1]; 30% RH): 1.90%
- Mass change by DVS, 1st Desorption (%) ([1]; 40% RH): 2.10%
- Mass change by DVS, 1st Sorption (%) ([1]; 40% RH): 2.09%
- Mass change by DVS, 2nd Desorption (%) ([1]; 40% RH): 2.09%
- Mass change by DVS, 2nd Sorption (%) ([1]; 40% RH): 2.09%
- Mass change by DVS, 1st Sorption (%) ([1]; 50% RH): 2.21%
- Mass change by DVS, 2nd Desorption (%) ([1]; 50% RH): 2.22%
- Mass change by DVS, 1st Sorption (%) ([1]; 60% RH): 2.28%
- Mass change by DVS, 2nd Desorption (%) ([1]; 60% RH): 2.29%
- Mass change by DVS, 1st Sorption (%) ([1]; 70% RH): 2.34%
- Mass change by DVS, 2nd Desorption (%) ([1]; 70% RH): 2.37%
- Mass change by DVS, 1st Sorption (%) ([1]; 80% RH): 2.40%
- Mass change by DVS, 2nd Desorption (%) ([1]; 80% RH): 2.44%
- Mass change by DVS, 1st Sorption (%) ([1]; 90% RH): 2.49%
- Mass change by DVS, 2nd Desorption (%) ([1]; 90% RH): 2.49%
- Mass change by DVS, 1st Sorption (%) ([1]; 95% RH): 2.52%
- Mass change by DVS, 2nd Desorption (%) ([1]; 95% RH): 2.52%
- form change in XRPD after compression [2]: no form change
- intrinsic dissolution rate ([3]; PBS-V1 (pH 6.5)): 0.18 mg/min/cm^2
- intrinsic dissolution rate ([3]; pH 2.0, 0.01 M HCl): 0.015 mg/min/cm^2
- form change after intrinsic dissolution [3, 8]: (No form change)
- intrinsic dissolution rate [3, 8]: 0.015 mg · min^−1 · cm^−2
- form change after intrinsic dissolution [3, 9]: (No form change
- intrinsic dissolution rate [3, 9]: 0.18 mg · min^−1 · cm^−2
- water content by Karl Fischer titration [4]: 2.3 % w/w
- solubility at 30 min ([5]; fassif, FaSSIF, 30 min): > 2 mg/mL
- solubility at 30 min ([5]; fessif, FeSSIF, 30 min): > 2 mg/mL
- solubility at 24 h ([5]; fessif, FeSSIF, 24 h): > 2 mg/mL
- solubility at 30 min ([5]; pH 7, water, Water, initial pH 7.00, 30 min): 0.48 mg/mL
- solubility at 24 h ([5]; pH 7, water, Water, initial pH 7.00, 24 h): 0.56 mg/mL
- pH at 24 h ([5]; FaSSGF): 1.5
- Solubility (mg/mL) 30 min ([5]; FaSSGF, 30 min): 0.40 mg/mL
- Solubility (mg/mL) 24 h ([5]; FaSSGF, 24 h): 0.54 mg/mL
- pH at 24 h ([5]; FaSSIF): 6.13
- Solubility (mg/mL) 24 h ([5]; FaSSIF, 24 h): 0.53 (salt mg/mL
- pH at 24 h ([5]; FeSSIF): 4.87
- pH at 24 h ([5]; Water, initial pH 7.00): 3.60
- stability in HPMC and HGC capsules ([6]; 50° C. with 11% and 75% RH for 2 weeks): chemically and physically stable
- degradation under light stress ([6]; 1200 kLux light stress): about 0.2%
- discoloration under light stress ([6]; 1200 kLux light stress): slight discoloration
- form change by XRPD after humidity exposure ([6]; exposed to 80% or 92% RH for 24 hrs): no change
- chemical stability in bulk state ([6]; stored at 50° C. with 11% RH or 75% RH for 1 week): chemically stable
- degradation in bulk state ([6]; stored at 80° C. with 75% RH): about 0.1%
- discoloration in bulk state ([6]; stored at 80° C. with 75% RH): slight discoloration
- chemical stability in bulk state ([6]; stored at 80° C./11% RH for 1 week): chemically stable
- polymorphic form in the stress conditions ([6]; temperature/humidity and light stress conditions): no change
- XRPD of residual solid after solubility test ([7]; FaSSGF, pH 1.6): No change
- pH of solubility sample (pH) ([7]; FaSSGF, pH 1.6): 1.77
- pH of solubility sample (pH) ([7]; PBS-V1 + 3 mM NaTC, pH 6.5): 6.42
- XRPD of residual solid after solubility test ([7]; PBS-V1 + 0.3 FeSSIF-V2, pH 6.5): Form A
- pH of solubility sample (pH) ([7]; PBS-V1 + 0.3 FeSSIF-V2, pH 6.5): 6.12
- XRPD of residual solid after solubility test ([7]; PBS-V1 + 2.0 FeSSIF-V2, pH 6.5): Form A
- pH of solubility sample (pH) ([7]; PBS-V1 + 2.0 FeSSIF-V2, pH 6.5): 6.19
- pH of solubility sample (pH) ([7]; PBS-V1 + FaSSIF-V2, pH 6.5): 6.35
- XRPD of residual solid after solubility test ([7]; PBS-V1 + FeSSIF-V2, pH 6.5): Form A
- pH of solubility sample (pH) ([7]; PBS-V1 + FeSSIF-V2, pH 6.5): 6.40
- solubility at 24 h ([7]; fassgf or other biorelevant, FaSSGF, pH 1.6): 0.49 mg/mL
- solubility at 24 h ([7]; fassgf or other biorelevant, PBS-V1 + 3 mM NaTC, pH 6.5): > 2 mg/mL
- solubility at 24 h ([7]; fassgf or other biorelevant, PBS-V1 + 0.3 FeSSIF-V2, pH 6.5): 0.1 mg/mL
- solubility at 24 h ([7]; fassgf or other biorelevant, PBS-V1 + 2.0 FeSSIF-V2, pH 6.5): 0.31 mg/mL
- solubility at 24 h ([7]; PBS-V1 + FaSSIF-V2, pH 6.5): > 2 mg/mL
- solubility at 24 h ([7]; PBS-V1 + FeSSIF-V2, pH 6.5): 0.2 mg/mL
- solubility at 24 h ([7]; water): 0.39 mg/mL
- solubility at 24 h compared with Form A ([7]; water and biorelevant buffers at 25° C., all media): significantly increased solubility
- pH of solubility sample (pH) ([7]; water): 3.89
